Source: patent US10160762B2, “6-alkyl dihydropyrazolopyrimidinone compounds as PDE2 inhibitors” (Merck Sharp & Dohme Corp., priority 2015, dated 2018)

Biological target: T1, human PDE2A1 (Homo sapiens, UniProt O00408)
T1 construct: GST; purchased BPS Bioscience (San Diego, Calif.) 60020; host or cells: insect cells
Test: IMAP FP PDE assay, human PDE2A1
Type: biochemical
Conditions: Lab B; read-out: Human PDE2 Ki (nM) Lab B
Procedure, shortened: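 FP (IMAP) read after 60 min room-temperature reaction of insect-cell GST-human PDE2A1 with 50 nM FAM-cAMP plus 1000 nM cGMP (pH 7.2 Tris, Mg2+, DTT). Compounds titrated 3-fold over ten points. Apparent Ki derived assuming KM of 10,000 nM; enzyme at 20% substrate turnover.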

T1 sequence (O00408 1-920 isoform O00408-2): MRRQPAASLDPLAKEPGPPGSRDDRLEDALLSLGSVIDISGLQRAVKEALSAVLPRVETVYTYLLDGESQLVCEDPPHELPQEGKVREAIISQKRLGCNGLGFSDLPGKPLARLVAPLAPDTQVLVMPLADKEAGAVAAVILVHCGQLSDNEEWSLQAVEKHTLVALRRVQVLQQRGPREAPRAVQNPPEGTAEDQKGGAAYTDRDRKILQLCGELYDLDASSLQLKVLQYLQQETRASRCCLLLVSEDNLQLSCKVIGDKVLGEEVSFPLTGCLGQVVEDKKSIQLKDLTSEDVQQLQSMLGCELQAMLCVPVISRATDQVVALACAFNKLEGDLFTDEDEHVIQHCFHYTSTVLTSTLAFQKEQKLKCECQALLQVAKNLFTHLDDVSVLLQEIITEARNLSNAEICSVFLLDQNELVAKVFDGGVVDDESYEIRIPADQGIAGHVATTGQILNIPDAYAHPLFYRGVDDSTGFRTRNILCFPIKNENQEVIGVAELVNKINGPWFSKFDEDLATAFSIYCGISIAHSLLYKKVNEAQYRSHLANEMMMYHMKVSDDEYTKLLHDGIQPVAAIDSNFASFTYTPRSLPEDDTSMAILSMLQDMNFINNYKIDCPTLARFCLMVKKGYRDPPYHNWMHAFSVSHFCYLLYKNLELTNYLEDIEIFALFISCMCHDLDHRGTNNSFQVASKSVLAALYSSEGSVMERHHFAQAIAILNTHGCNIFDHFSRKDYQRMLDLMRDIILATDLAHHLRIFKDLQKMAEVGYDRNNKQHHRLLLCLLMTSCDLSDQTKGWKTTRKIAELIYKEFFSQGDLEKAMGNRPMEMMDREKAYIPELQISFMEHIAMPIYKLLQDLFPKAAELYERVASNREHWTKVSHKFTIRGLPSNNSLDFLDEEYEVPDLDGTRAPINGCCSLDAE

Structure (SMILES) | Ki
Cc1nc2c(c(C(F)F)nn2C(C)c2ccc(C(F)(F)F)cc2F)c(=O)[nH]1 (single isomer, unassigned) [Example 185, (R)- or (S)-3-(Difluoro-methyl)-1-(1-(2-fluoro-4-(trifluoro-methyl)phenyl)-ethyl)-6-methyl-1H-pyrazolo[3,4-d]pyrimidin-4(5H)-one] | 303 nM
CCc1nc2c(c(C(F)F)nn2C(C)c2ccc(C(F)(F)F)cc2)c(=O)[nH]1 (single isomer, unassigned) [Example 189, (R)- or (S)-3-(Difluoromethyl)-6-ethyl-1-(1-(4-(trifluoromethyl)phenyl)ethyl)-1,5-dihydro-4H-pyrazolo[3,4-d]pyrimidin-4-one] | 330 nM
CC(c1ccc(C(F)(F)F)cc1)n1nc(C(F)F)c2c(=O)[nH]c(C3CC3)nc21 (single isomer, unassigned) [Example 191, (R)- or (S)-6-Cyclopropyl-3-(difluoromethyl)-1-(1-(4-(trifluoromethyl)phenyl)ethyl)-1,5-dihydro-4H-pyrazolo[3,4-d]pyrimidin-4-one] | 268 nM
Cc1nc2c(c(C(F)F)nn2C(C)c2ccc(C(F)(F)F)nc2)c(=O)[nH]1 (single isomer, unassigned) [Example 195] | ~1670 nM
Cc1nc2c(c(CC(O)C(F)(F)F)nn2C(C)c2ccc(C(F)(F)F)cc2)c(=O)[nH]1 (single isomer, unassigned) [Example 239] | ~2820 nM
Cc1nc2c(c(CC(O)C(F)(F)F)nn2C(C)c2ccc(C(F)(F)F)cc2)c(=O)[nH]1 (single isomer, unassigned) [Example 240] | 434 nM
Cc1nc2c(c(CC(O)C(F)(F)F)nn2C(C)c2ccc(C(F)(F)F)cc2)c(=O)[nH]1 (single isomer, unassigned) [Example 241] | 610 nM
Cc1nc2c(c(CC(O)C(F)(F)F)nn2C(C)c2ccc(C(F)(F)F)cc2)c(=O)[nH]1 (single isomer, unassigned) [Example 242] | 434 nM
Cc1nc2c(c(CC(C)O)nn2C(C)c2ccc(C(F)(F)F)cc2)c(=O)[nH]1 (single isomer, unassigned) [Example 243] | 808 nM
Cc1nc2c(c(CC(C)O)nn2C(C)c2ccc(C(F)(F)F)cc2)c(=O)[nH]1 (single isomer, unassigned) [Example 244] | 386 nM
Cc1nc2c(c(C(F)(F)CO)nn2C(C)c2ccc(C(F)(F)F)cc2)c(=O)[nH]1 (single isomer, unassigned) [Example 254] | 452 nM
Cc1nc2c(c(C(N)=O)nn2C(C)c2ccc(C(F)(F)F)cc2)c(=O)[nH]1 (single isomer, unassigned) [Example 256] | 86 nM
Cc1nc2c(c(C(N)=O)nn2C(C)c2ccc(C(F)(F)F)cc2)c(=O)[nH]1 (single isomer, unassigned) [Example 257] | 115 nM
CC(=O)Nc1nn(C(C)c2ccc(C(F)(F)F)cc2)c2nc(C)[nH]c(=O)c12 (single isomer, unassigned) [Example 259] | ~2120 nM
Cc1nc2c(c(-c3nnco3)nn2C(C)c2ccc(C(F)(F)F)cc2)c(=O)[nH]1 (single isomer, unassigned) [Example 262] | 395 nM
CNC(=O)c1nn(C(C)c2ccc(C(F)(F)F)cc2)c2nc(C)[nH]c(=O)c12 (single isomer, unassigned) [Example 264] | 233 nM
CNC(=O)c1nn(C(C)c2ccc(C(F)(F)F)cc2)c2nc(C)[nH]c(=O)c12 (single isomer, unassigned) [Example 265] | 375 nM
Cc1nc2c(c(C(=O)N(C)C)nn2C(C)c2ccc(C(F)(F)F)cc2)c(=O)[nH]1 (single isomer, unassigned) [Example 266, (R)- or (S)-N,N,6-Trimethyl-4-oxo-1-(1-(4-(trifluoromethyl)phenyl)ethyl)-4,5-dihydro-1H-pyrazolo[3,4-d]pyrimidine-3-carboxamide] | 654 nM
Cc1nc2c(c(C(=O)N(C)C)nn2C(C)c2ccc(C(F)(F)F)cc2)c(=O)[nH]1 (single isomer, unassigned) [Example 267, (S)- or (R)-N,N,6-Trimethyl-4-oxo-1-(1-(4-(trifluoromethyl)phenyl)ethyl)-4,5-dihydro-1H-pyrazolo[3,4-d]pyrimidine-3-carboxamide] | > 2960 nM
Cc1nc2c(c(C(=O)NCC(F)(F)F)nn2C(C)c2ccc(C(F)(F)F)cc2)c(=O)[nH]1 (single isomer, unassigned) [Example 268, (R)- or (S)-6-Methyl-4-oxo-N-(2,2,2-trifluoroethyl)-1-(1-(4-(trifluoromethyl)phenyl)ethyl)-4,5-dihydro-1H-pyrazolo[3,4-d]pyrimidine-3-carboxamide] | 311 nM
Cc1nc2c(c(C(=O)NCC(F)(F)F)nn2C(C)c2ccc(C(F)(F)F)cc2)c(=O)[nH]1 (single isomer, unassigned) [Example 269, (S)- or (R)-6-Methyl-4-oxo-N-(2,2,2-trifluoroethyl)-1-(1-(4-(trifluoromethyl)phenyl)ethyl)-4,5-dihydro-1H-pyrazolo[3,4-d]pyrimidine-3-carboxamide] | ~1430 nM

Results, then the compound that gave them:

Ki | Structure (SMILES)
0.63 nM | Cc1nc2c(c(C(F)F)nn2C(C)c2ccc(C(F)(F)F)cc2F)c(=O)[nH]1 (single isomer, unassigned) [Example 186, (S)- or (R)-3-(Difluoro-methyl)-1-(1-(2-fluoro-4-(trifluoromethyl)phenyl)ethyl)-6-methyl-1H-pyrazolo[3,4-d]pyrimidin-4(5H)-one]
231 nM | COCc1nc2c(c(C(F)F)nn2C(C)c2ccc(C(F)(F)F)cc2)c(=O)[nH]1 (single isomer, unassigned) [Example 187, (R)- or (S)-3-(Difluoromethyl)-6-(methoxymethyl)-1-{1-[4-(trifluoromethyl)phenyl]ethyl}-1,5-dihydro-4H-pyrazolo-[3,4-d]pyrimidin-4-one]
2.6 nM | COCc1nc2c(c(C(F)F)nn2C(C)c2ccc(C(F)(F)F)cc2)c(=O)[nH]1 (single isomer, unassigned) [Example 188, (S)- or (R)-3-(Difluoro-methyl)-6-(methoxymethyl)-1-{1-[4-(trifluoromethyl)phenyl]ethyl}-1,5-dihydro-4H-pyrazolo-[3,4-d]pyrimidin-4-one]
2.7 nM | CCc1nc2c(c(C(F)F)nn2C(C)c2ccc(C(F)(F)F)cc2)c(=O)[nH]1 (single isomer, unassigned) [Example 190, (S)- or (R)-3-(Difluoromethyl)-6-ethyl-1-(1-(4-(trifluoromethyl)-phenyl)ethyl)-1,5-dihydro-4H-pyrazolo[3,4-d]pyrimidin-4-one]
3.4 nM | CC(c1ccc(C(F)(F)F)cc1)n1nc(C(F)F)c2c(=O)[nH]c(C3CC3)nc21 (single isomer, unassigned) [Example 192, (S)- or (R)-6-Cyclopropyl-3-(difluoromethyl)-1-(1-(4-(trifluoromethyl)phenyl)ethyl)-1,5-dihydro-4H-pyrazolo[3,4-d]pyrimidin-4-one]
14 nM | Cc1nc2c(c(C(F)F)nn2C(C)c2ccc(C(F)(F)F)nc2)c(=O)[nH]1 (single isomer, unassigned) [Example 194]
75 nM | Cc1nc2c(c(CF)nn2C(C)c2ccc(CC(F)(F)F)cc2)c(=O)[nH]1 (single isomer, unassigned) [Example 210, (R)- or (S)-3-(Fluoromethyl)-6-methyl-1-(1-(4-(2,2,2-trifluoroethyl)phenyl)ethyl)-1H-pyrazolo[3,4-d]pyrimidin-4(5H)-one]
4.6 nM | Cc1nc2c(c(CF)nn2C(c2ccc(OC(F)(F)F)cc2)C2CC2)c(=O)[nH]1 (single isomer, unassigned) [Example 225, (S)- or (R)-1-(Cyclopropyl(4-(trifluoromethoxy)phenyl)methyl)-3-(fluoromethyl)-6-methyl-1,5-dihydro-4H-pyrazolo[3,4-d]pyrimidin-4-one]
32 nM | Cc1nc2c(c(CF)nn2C(c2ccc(C(F)(F)F)c(F)c2)C2CC2)c(=O)[nH]1 (single isomer, unassigned) [Example 227, (S)- or (R)-1-(Cyclopropyl(3-fluoro-4-(trifluoromethyl)phenyl)methyl)-3-(fluoromethyl)-6-methyl-1,5-dihydro-4H-pyrazolo[3,4-d]pyrimidin-4-one]
2 nM | Cc1nc2c(c(CF)nn2C(c2ccc(OC(F)(F)F)c(F)c2)C2CC2)c(=O)[nH]1 (single isomer, unassigned) [Example 229, (S)- or (R)-1-(Cyclopropyl(3-fluoro-4-(trifluoromethoxy)phenyl)methyl)-3-(fluoromethyl)-6-methyl-1,5-dihydro-4H-pyrazolo[3,4-d]pyrimidin-4-one]
25 nM | Cc1nc2c(c(-c3ccn[nH]3)nn2C(C)c2ccc(C(F)(F)F)cc2)c(=O)[nH]1 (single isomer, unassigned) [Example 235]
76 nM | Cc1nc2c(c(-c3ccn[nH]3)nn2C(C)c2ccc(C(F)(F)F)cc2)c(=O)[nH]1 (single isomer, unassigned) [Example 236]
2.5 nM | Cc1nc2c(c(-c3cn[nH]c3)nn2C(C)c2ccc(C(F)(F)F)cc2)c(=O)[nH]1 (single isomer, unassigned) [Example 237]
48 nM | Cc1nc2c(c(-c3cn[nH]c3)nn2C(C)c2ccc(C(F)(F)F)cc2)c(=O)[nH]1 (single isomer, unassigned) [Example 238]
72 nM | Cc1nc2c(c(CC(C)O)nn2C(C)c2ccc(C(F)(F)F)cc2)c(=O)[nH]1 (single isomer, unassigned) [Example 245]
72 nM | Cc1nc2c(c(CC(C)O)nn2C(C)c2ccc(C(F)(F)F)cc2)c(=O)[nH]1 (single isomer, unassigned) [Example 246]
54 nM | CC(=O)Nc1nn(C(C)c2ccc(C(F)(F)F)cc2)c2nc(C)[nH]c(=O)c12 (single isomer, unassigned) [Example 260]
0.88 nM | Cc1nc2c(c(-c3nnco3)nn2C(C)c2ccc(C(F)(F)F)cc2)c(=O)[nH]1 (single isomer, unassigned) [Example 263]
